{"source": "ChEMBL document CHEMBL5209586", "about": "“Membrane potential-based assay for SLC34A1 using HEK293 JumpIn SLC34A1 OE cells” (2022)", "molecular_target": "T1, Sodium-dependent phosphate transport protein 2A (Homo sapiens, UniProt Q06495)", "T1 sequence (Q06495 whole entry)": "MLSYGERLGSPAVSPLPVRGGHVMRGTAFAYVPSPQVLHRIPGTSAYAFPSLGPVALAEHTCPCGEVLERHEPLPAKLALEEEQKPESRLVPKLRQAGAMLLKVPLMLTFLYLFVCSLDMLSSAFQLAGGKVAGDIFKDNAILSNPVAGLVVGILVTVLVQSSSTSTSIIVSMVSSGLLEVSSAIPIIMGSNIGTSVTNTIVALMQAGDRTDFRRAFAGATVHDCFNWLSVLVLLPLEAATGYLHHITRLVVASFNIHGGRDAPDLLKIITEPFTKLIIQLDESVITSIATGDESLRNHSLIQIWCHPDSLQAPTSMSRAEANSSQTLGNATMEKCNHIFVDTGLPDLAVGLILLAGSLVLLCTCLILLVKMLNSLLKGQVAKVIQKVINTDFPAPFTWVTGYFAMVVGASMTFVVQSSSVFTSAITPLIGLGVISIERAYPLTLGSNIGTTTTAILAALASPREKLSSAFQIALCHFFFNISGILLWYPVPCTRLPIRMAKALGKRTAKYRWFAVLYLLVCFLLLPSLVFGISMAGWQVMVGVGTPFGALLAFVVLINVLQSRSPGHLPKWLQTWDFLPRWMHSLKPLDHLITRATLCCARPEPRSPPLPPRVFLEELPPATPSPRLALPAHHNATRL", "description": "Substrate uptake by the Sodium-Dependent Phosphate Transport Protein 2A (NPT2a, SLC34A1) as assessed by the fluorescent FLIPR membrane potential dye in HEK-293 JumpIN-SLC34A1 cells (PubChem AID: 1794813)", "data": [{"smiles": "O=P([O-])([O-])O.[Na+].[Na+]", "note": "[SODIUM PHOSPHATE, DIBASIC, ANHYDROUS]", "values": [{"measurement": "EC50", "result": 32, "unit": "µM"}]}, {"smiles": "O=P([O-])(O)O.[K+]", "note": "[POTASSIUM PHOSPHATE, MONOBASIC]", "values": [{"measurement": "EC50", "result": 39, "unit": "µM"}]}]}
